Values quoted from earlier work, collected in patent US20140271573A1, “PHARMACO-CELLULAR THERAPEUTIC METHOD FOR THE TREATMENT OF MUSCULAR DYSTROPHIES” (PONTIFICIA UNIVERSIDAD CATÓLICA DE CHILE, priority 2013, published 2014).

Assays:
dystrophin = conditions: cited from earlier work
MES-13 cells = conditions: cited from earlier work
[1] = 12 DMD patients, six-month period

gentamicin
clinical benefits in DMD patients (dystrophin; [1]): no clinical benefits were observed
patients with dystrophin expression detected (dystrophin; [1]): 6 of the 12
dystrophin expression in muscle fibers, of normal levels (dystrophin; mdx mice and humans): 20%

C=C1CCC2C(C)(CO)C(O)CCC2(C)C1C=CC1=CCOC1=O (stereo not shown) [AP2, 14-deoxy-11,12-didehydroandrographolide]
reduction of caspase-3, TGF-β1 and PAI-1, relative activity (MES-13 cells; MES-13 cells, AP2 compared with AP1): potent activity than AP1
phenotypes indicating diabetic nephropathy in MES-13 cells (MES-13 cells; MES-13 cells): reduces
antioxidant ability in a cellular environment (MES-13 cells): do not have antioxidant ability
intracellular oxidative states (MES-13 cells; high glucose cultured MES-13 cells): reduced
